Assay [1] deals with Carbonic anhydrase 9 (Homo sapiens, UniProt Q16790). In words: Inhibition of recombinant human carbonic anhydrase 9 by stopped-flow CO2 hydration assay.
Assay [2] concerns Mus musculus. The assay is described as follows: Anticonvulsant activity in Swiss Albino mouse model of maximal electroshock-induced seizure assessed as protection against seizure by measuring suppression of hind limb extension at 30 mg/kg, ip pretreated for 30 mins before seizure stimulation and measured after 0.5 hrs by MES test relative to control. In kind it is functional. The conditions noted are these: time 60 min, 1 h. (The maximal electroshock test induces tonic seizures with an electrical stimulus.)

The test system of assay [3] is Mus musculus. The assay is described as follows: Anticonvulsant activity in Swiss Albino mouse model of maximal electroshock-induced seizure assessed as protection against seizure by measuring suppression of hind limb extension at 100 mg/kg, ip pretreated for 30 mins before seizure stimulation and measured after 0.5 hrs by MES test relative to control. In kind it is functional. The conditions noted are these: time 60 min, 1 h.

The test system of assay [4] is Mus musculus. The assay is described as follows: Anticonvulsant activity in Swiss Albino mouse model of maximal electroshock-induced seizure assessed as protection against seizure by measuring suppression of hind limb extension at 30 mg/kg, ip pretreated for 30 mins before seizure stimulation and measured after 3 hrs by MES test relative to control. In kind it is functional. To be noted: time 3.5 hrs.

In assay [5] the test system is Mus musculus. The assay is described as follows: Anticonvulsant activity in Swiss Albino mouse model of maximal electroshock-induced seizure assessed as protection against seizure by measuring suppression of hind limb extension at 100 mg/kg, ip pretreated for 30 mins before seizure stimulation and measured after 3 hrs by MES test relative to control. In kind it is functional. To be noted: 0.5 h.

Assay [6] has as its system Mus musculus. The assay is described as follows: Anticonvulsant activity in Swiss Albino mouse assessed as protection against seizure at 30 mg/kg, ip measured after 0.5 hrs by sc-PTZ seizure test relative to control. In kind it is functional.
Assay [7] relates to Mus musculus. The assay is described as follows: Anticonvulsant activity in Swiss Albino mouse assessed as protection against seizure at 30 mg/kg, ip measured after 3 hrs by sc-PTZ seizure test relative to control. In kind it is functional.
The subject of assay [8] is Mus musculus. The assay is described as follows: Anticonvulsant activity in Swiss Albino mouse assessed as protection against seizure at 100 mg/kg, ip measured after 0.5 hrs by sc-PTZ seizure test relative to control. In kind it is functional.
The subject of assay [9] is Mus musculus. The assay is described as follows: Anticonvulsant activity in Swiss Albino mouse assessed as protection against seizure at 100 mg/kg, ip measured after 3 hrs by sc-PTZ seizure test relative to control. In kind it is functional.

SMILES strings stand for the structures.

By Ki is commonly meant the equilibrium dissociation constant of an inhibitor or competing ligand from its target.

In the case of `NS(=O)(=O)c1ccc(CNC(=O)CCN2CCN(c3ncccn3)CC2)cc1`, in assay [1], the Ki is 455 nM. On the same count and under the same terms, the same measure for `NS(=O)(=O)c1ccc(CNC(=O)CCN2CCN(C(c3ccccc3)c3ccccc3)CC2)cc1`: 890 nM; for `COc1ccc(N2CCN(CC(=O)NCc3ccc(S(N)(=O)=O)cc3)CC2)cc1`: 1100 nM; for `NS(=O)(=O)c1ccc(CNC(=O)CN2CCN(C(c3ccccc3)c3ccccc3)CC2)cc1`: 1680 nM. Consider `COc1ccc(N2CCN(CCC(=O)NCc3ccc(S(N)(=O)=O)cc3)CC2)cc1`, for which the Ki in assay [1] amounted to 136 nM. For the compound `NS(=O)(=O)c1ccc(CNC(=O)CN2CCN(c3ncccn3)CC2)cc1`, in assay [1], the Ki came to 2230 nM. Also, the Activity in assay [2] is given as 50%; in assay [3], 50%; in [4], 67%; in assay [5], 83%; in assay [6] it was 33%; in [7], 50%. The Activity in assay [8] and in [9] was 50% in each case.

Regarding `NS(=O)(=O)c1ccc(CNC(=O)CCN2CCN(c3ccc(C(F)(F)F)cc3)CC2)cc1`, the Ki in [1] came out at 137 nM. With `NS(=O)(=O)c1ccc(CNC(=O)CN2CCN(C(=O)OCc3ccccc3)CC2)cc1`, in assay [1], the Ki is 1630 nM. In addition, the Activity in assay [2] amounted to 17%; in assay [3] it was 67%; in [4] it was 67%; in [5] it was 50%; in assay [6], 67%; in assay [7], 17%. Further, the results for the Activity in assay [8] and in assay [9] were 50% and 33%, respectively. `NS(=O)(=O)c1ccc(CNC(=O)CN2CCN(Cc3ccccc3)CC2)cc1`: in assay [1], the Ki was 220 nM. Still for that read-out and setting: the same measure for `Cc1ccc(N2CCN(CCC(=O)NCc3ccc(S(N)(=O)=O)cc3)CC2)cc1`: 78.9 nM; for `NS(=O)(=O)c1ccc(CNC(=O)CN2CCN(c3ccc(C(F)(F)F)cc3)CC2)cc1`: 1770 nM; for `NS(=O)(=O)c1ccc(CNC(=O)CCN2CCN(c3ccc(F)cc3)CC2)cc1`: 115 nM. Regarding `NS(=O)(=O)c1ccc(CNC(=O)CN2CCN(C(c3ccc(F)cc3)c3ccc(F)cc3)CC2)cc1`, the Ki in [1] amounted to 2440 nM. Still for that read-out and setting: the same measure for `NS(=O)(=O)c1ccc(CNC(=O)CCN2CCN(C(=O)OCc3ccccc3)CC2)cc1`: 257 nM; for `NS(=O)(=O)c1ccc(CNC(=O)CCN2CCN(C(c3ccc(F)cc3)c3ccc(F)cc3)CC2)cc1`: 98 nM.

Regarding `NS(=O)(=O)c1ccc(CNC(=O)CN2CCN(c3ccc(F)cc3)CC2)cc1`, in [1], the Ki amounted to 228 nM. Take `NS(=O)(=O)c1ccc(CNC(=O)CN2CCN(c3ccccc3)CC2)cc1`: the Ki in assay [1] is 396 nM. The same measure, in the same setting: in the case of `NS(=O)(=O)c1ccc(CNC(=O)CCN2CCN(c3ccccc3)CC2)cc1` it was 23.7 nM. Still for that read-out and setting: in the case of `NS(=O)(=O)c1ccc(CNC(=O)CCN2CCN(c3ccccn3)CC2)cc1` it was 162 nM; in that of `NS(=O)(=O)c1ccc(CNC(=O)CN2CCN(Cc3ccc4c(c3)OCO4)CC2)cc1`, 1600 nM; in that of `NS(=O)(=O)c1ccc(CNC(=O)CCN2CCN(Cc3ccccc3)CC2)cc1`, 116 nM. Still for that read-out and setting: in the case of `Cc1ccc(N2CCN(CC(=O)NCc3ccc(S(N)(=O)=O)cc3)CC2)cc1` it was 1530 nM; in that of `NS(=O)(=O)c1ccc(CNC(=O)CN2CCN(c3ccc(Cl)cc3)CC2)cc1`, 1200 nM; in that of `NS(=O)(=O)c1ccc(CNC(=O)CCN2CCN(c3ccc(Cl)cc3)CC2)cc1`, 117 nM. As for `NS(=O)(=O)c1ccc(CNC(=O)CN2CCN(c3ccccn3)CC2)cc1`, the Ki in assay [1] was determined as 1560 nM.

Source of the values: ChEMBL document CHEMBL4680105, “Discovery of Benzenesulfonamide Derivatives as Carbonic Anhydrase Inhibitors with Effective Anticonvulsant Action: Design, Synthesis, and Pharmacological Evaluation” (J Med Chem, 2018).
